According to patent US10450297B2, “Sulfonyl amide derivatives for the treatment of abnormal cell growth” (Pfizer, Inc., priority 2007, dated 2019):
pIC50: −log10 of the molar value.

Target: FAK kinase (catalytic construct FAK(410-689)) (Homo sapiens (Human), UniProt Q05397)
Assay: FAKcd kinase ELISA (inhibition of poly-glu-tyr phosphorylation by FAK(410-689))
Format: biochemical
Conditions: 50 μM final ATP

Chain of FAK kinase (catalytic construct FAK(410-689)) (Q05397 410-689): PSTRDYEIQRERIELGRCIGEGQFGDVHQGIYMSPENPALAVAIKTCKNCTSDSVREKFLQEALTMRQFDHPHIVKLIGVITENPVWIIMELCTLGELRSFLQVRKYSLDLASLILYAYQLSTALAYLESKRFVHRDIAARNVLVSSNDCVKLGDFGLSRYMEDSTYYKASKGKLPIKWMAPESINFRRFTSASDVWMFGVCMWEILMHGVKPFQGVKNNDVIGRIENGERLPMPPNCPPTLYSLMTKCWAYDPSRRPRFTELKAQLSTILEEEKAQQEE

Row | Compound | pIC50
1 | CCOC(=O)Cc1ccc(Nc2ncc(C(F)(F)F)c(NCc3cccnc3N(C)S(C)(=O)=O)n2)cc1 [Compound 98, ethyl [4-({4-[({2-[methyl(methylsulfonyl)amino]pyridin-3-yl}methyl)amino]-5-(trifluoromethyl)pyrimidin-2-yl}amino)phenyl]acetate] | 9.23
2 | CN(c1cccc(CNc2nc(Nc3ccc(C(N)=O)cc3)ncc2C(F)(F)F)c1)S(C)(=O)=O [Compound 99, 4-{[4-({3-[methyl(methylsulfonyl)amino]benzyl}amino)-5-(trifluoromethyl)pyrimidin-2-yl]amino}benzamide] | 9.42
3 | CC(=O)Nc1ccc(Nc2ncc(C(F)(F)F)c(NCc3cccnc3N(C)S(C)(=O)=O)n2)cn1 [Compound 102, N-[5-({4-[({2-[methyl(methylsulfonyl)amino]pyridin-3-yl}methyl)amino]-5-(trifluoromethyl)pyrimidin-2-yl}amino)pyridin-2-yl]acetamide] | 8.63
4 | CN(c1ncccc1CNc1nc(Nc2ccc(CC(=O)O)cc2)ncc1C(F)(F)F)S(C)(=O)=O [Compound 105, [4-({4-[({2-[methyl(methylsulfonyl)amino]pyridin-3-yl}methyl)amino]-5-(trifluoromethyl)pyrimidin-2-yl}arnino)phenyl]acetic acid] | 9.03
5 | Cc1cccc(CNc2nc(Nc3ccc(C(N)=O)cc3)ncc2C(F)(F)F)c1N(C)S(C)(=O)=O [Compound 108, 4-{[4-({3-methyl-2-[methyl(methylsulfonyl)amino]benzyl}amino)-5-(trifluoromethyl)pyrimidin-2-yl]amino}benzamide] | 9.22
6 | Cc1ccc(CNc2nc(Nc3ccc(C(N)=O)cc3)ncc2C(F)(F)F)c(N(C)S(C)(=O)=O)c1 [Compound 109, 4-{[4-({4-methyl-2-[methyl(methylsulfonyl)amino]benzyl}amino)-5-(trifluoromethyl)pyrimidin-2-yl]amino}benzamide] | 9.22
7 | Cc1ccc(N(C)S(C)(=O)=O)c(CNc2nc(Nc3ccc(C(N)=O)cc3)ncc2C(F)(F)F)c1 [Compound 110, 4-{[4-({5-methyl-2-[methyl(methylsulfonyl)amino]benzyl}amino)-5-(trifluoromethyl)pyrimidin-2-yl]amino}benzamide] | 9.22
8 | CS(=O)(=O)Nc1ccccc1CNc1nc(Nc2ccc(C(N)=O)cc2)ncc1C(F)(F)F [Compound 111, 4-{[4-({2-[(methylsulfonyl)amino]benzyl}amino)-5-(trifluoromethyl)pyrimidin-2-yl]amino}benzamide] | 9.22
9 | Cc1ccc(CNc2nc(Nc3ccc(C(N)=O)cc3)ncc2C(F)(F)F)c(NS(C)(=O)=O)c1 [Compound 112, 4-{[4-({4-methyl-2-((methylsulfonyl)amino]benzyl}amino)-5-(trifluoromethyl)pyrimidin-2-yl]amino}benzamide] | 9.22
10 | Cc1cccc(NS(C)(=O)=O)c1CNc1nc(Nc2ccc(C(N)=O)cc2)ncc1C(F)(F)F [Compound 113, 4-{[4-({2-methyl-6-[(methylsulfonyl)amino]benzyl}amino)-5-(trifluoromethyl)pyrimidin-2-yl]amino}benzamide] | 9.22
11 | CN(CCO)C(=O)c1cccc(Nc2ncc(C(F)(F)F)c(NCc3cccnc3N(C)S(C)(=O)=O)n2)c1 [Compound 115, N-(2-hydroxyethyl}-N-methyl-3-({4-[({2-[methyl(methylsulfonyl)amino]pyridin-3-yl)methyl)amino]-5-(trifluoromethyl)pyrimidin-2-yl}amino)benzamide] | 9.06
12 | CN(c1ncccc1CNc1nc(Nc2cccc(C(=O)NC[C@H]3CCCO3)c2)ncc1C(F)(F)F)S(C)(=O)=O [Compound 117, 3-({4-[({2-[methyl(methylsulfonyl)amino]pyridin-3-yl}methyl)amino]-5-(trifluoromethyl)pyrimidin-2-yl}amino)-N-[(2R)-tetrahydrofuran-2-ylmethyl]benzamide] | 8.83
13 | CN(c1ncccc1CNc1nc(Nc2cccc(C(=O)NC3CCCOC3)c2)ncc1C(F)(F)F)S(C)(=O)=O (centres unmarked) [Compound 119, 3-({4-[({2-[methyl(methylsulfonyl)amino]pyridin-3-yl}methyl)amlno]-5-(trifluoromethyl)pyrimidin-2-yl}amino)-N-(tetrahydro-2H-pyran-3-yl)benzamide] | 8.94
14 | CN(c1ncccc1CNc1nc(Nc2cccc(C(=O)NC3CCOCC3)c2)ncc1C(F)(F)F)S(C)(=O)=O [Compound 121, 3-({4-[({2-[methyl(methylsulfonyl)amino]pyridin-3-yl}methyl)amino]-5-(trifluoromethyl)pyrimidin-2-yl}amino)-N-(tetrahydro-2H-pyran-4-yl)benzamide] | 9.03
15 | CN(c1ncccc1CNc1nc(Nc2cccc(C(=O)N3CCOCC3)c2)ncc1C(F)(F)F)S(C)(=O)=O [Compound 123, N-methyl-N-[3-({(2-{[3-(morpholin-4-ylcarbonyl)phenyl]amino}-5-(trifluoromethyl)pyrimidin-4-yl]amino}methyl)pyridin-2-yl]methanesulfonamide] | 8.67
16 | CN(c1ncccc1CNc1nc(Nc2cccc(C(=O)N3CCC3)c2)ncc1C(F)(F)F)S(C)(=O)=O [Compound 125, N-[3-({[2-{[3-(azetidin-1-ylcarbonyl)phenyl]amino}-5-(trifluoromethyl)pyrimldin-4-yl]amino}methyl)pyridin-2-yl]-N-methylmethanesulfon-amide] | 8.90
17 | CN(c1ncccc1CNc1nc(Nc2cccc(C(=O)NCC3(O)CCC3)c2)ncc1C(F)(F)F)S(C)(=O)=O [Compound 127, N-[(1-hydroxycyclobutyl)methyl]-3-({4-[({2-[methyl(methylsulfonyl)amino]pyridin-3-yl}methyl)amino]-5-(trifluoromethyl)pyrimidin-2-yl}amino)benzamide] | 8.68
18 | CN(c1ncccc1CNc1nc(Nc2cccc(C(=O)N(CCO)CCO)c2)ncc1C(F)(F)F)S(C)(=O)=O [Compound 129, N,N-bis(2-hydroxyethyl)-3-({4-[({2-[methyl(methylsulfonyl)amino]pyridin-3-yl}methyl)amino]-5-(trifluoromethyl)pyrimidin-2-yl}amino)benzamide] | 9.12
19 | CN(C(=O)c1cccc(Nc2ncc(C(F)(F)F)c(NCc3cccnc3N(C)S(C)(=O)=O)n2)c1)C1CCCC1 [Compound 131, N-cyclopentyl-N-methyl-3-({4-[({2-[methyl(methylsulfonyl)amino]pyridin-3-yl}methyl)amino]-5-(trifluoromethyl)pyrimidin-2-yl}amino)benzamide] | 7.97
20 | CN(C)C(=O)CNC(=O)c1cccc(Nc2ncc(C(F)(F)F)c(NCc3cccnc3N(C)S(C)(=O)=O)n2)c1 [Compound 133, N-[2-(dimethylamino)-2-oxoethyl]-3-({4-[({2-[methyl(methylsulfonyl)amino]pyridin-3-yl}methyl)amino]-5-(trifluoromethyl)pyrimidin-2-yl}amino)benzamide] | 8.71
21 | CN(c1ncccc1CNc1nc(Nc2cccc(C(=O)N3CCC(C)(O)C3)c2)ncc1C(F)(F)F)S(C)(=O)=O (centres unmarked) [Compound 135, N-[3-({(2-({3-[(3-hydroxy-3-methyipyrrolidin-1-yl)carbonyl]phenyl}amino)-5-(trifluoromethyl)pyrimidin-4-yl]amino}methyl)pyridin-2-yl]-N-methylmethane-sulfonamide] | 8.48
22 | CN(C)CCN(C)C(=O)c1cccc(Nc2ncc(C(F)(F)F)c(NCc3cccnc3N(C)S(C)(=O)=O)n2)c1 [Compound 137, N-[2-(dimethylamino)ethyl]-N-methyl-3-({4-[({2-[methyl(methylsulfonyl)amino]pyridin-3-yl}methyl)amino)-5-(trifluoromethyl)pyrimidin-2-yl}amino)benzamide] | 8.36
23 | CN(c1ncccc1CNc1nc(Nc2cccc(C(=O)NCc3ccccn3)c2)ncc1C(F)(F)F)S(C)(=O)=O [Compound 139, 3-({4-[({2-[methyl(methylsulfonyl)amino]pyridin-3-yl}methyl)amino]-5-(trifluoromethyl)pyrimidin-2-yl}amino)-N-(pyridin-2-ylmethyl)benzamide] | 8.72
24 | CN(c1ncccc1CNc1nc(Nc2cccc(C(=O)NCC3(C)COC3)c2)ncc1C(F)(F)F)S(C)(=O)=O [Compound 141, 3-({4-[({2-[methyl(methylsulfonyl)amino]pyridin-3-yl}methyl)amino]-5-(trifluoromethyl)pyrimidin-2-yl}amino)-N-[(3-methyloxetan-3-yl)methyl]benzamide] | 9.08
25 | C[C@H]1COCCN1C(=O)c1cccc(Nc2ncc(C(F)(F)F)c(NCc3cccnc3N(C)S(C)(=O)=O)n2)c1 [Compound 143, N-methyl-N-{3-[({2-[(3-{[(3S)-3-methylmorpholin-4-yl]carbonyl}phenyl)amino]-5-(trifluoromethyl)pyrimidin-4-yl}amino)methyl]pyridin-2-yl}methanesulfonamide] | 8.62
26 | CN(C)CCCNC(=O)c1cccc(Nc2ncc(C(F)(F)F)c(NCc3cccnc3N(C)S(C)(=O)=O)n2)c1 [Compound 145, N-[3-(dimethylamino)propyl]-3-({4-(({2-[methyl(methylsulfonyl)amino]pyridin-3-yl}methyl)amino]-5-(trifluoromethyl)pyrimidin-2-yl}amino)benzamide] | 8.60
27 | CN(c1ncccc1CNc1nc(Nc2cccc(C(=O)N3CCCC3CO)c2)ncc1C(F)(F)F)S(C)(=O)=O (centres unmarked) [Compound 147, N-{3-[({2-[(3-{[2-(hydroxymethyl)pyrrolidin-1-yl]carbonyl}phenyl)amino]-5-(trifluoromethyl)pyrimidin-4-yl}amino)methyl]pyridin-2-yl}-N-methylmethane-sulfonamide] | 8.32
28 | COCCCNC(=O)c1cccc(Nc2ncc(C(F)(F)F)c(NCc3cccnc3N(C)S(C)(=O)=O)n2)c1 [Compound 149, N-(3-methoxypropyl)-3-({4-[({2-[methyl(methylsulfonyl)amino]pyridin-3-yl}methyl)amino]-5-(trifluoromethyl)pyrimidin-2-yl}amino)benzamide] | 8.82
29 | CC(NC(=O)c1cccc(Nc2ncc(C(F)(F)F)c(NCc3cccnc3N(C)S(C)(=O)=O)n2)c1)C1CC1 (centres unmarked) [Compound 151, N-(1-cyclopropylethyl)-3-({4-[({2-[methyl(methylsulfonyl)-amino]pyridin-3-yl}methyl)amino]-5-(trifluoromethyl)pyrimidin-2-yl}amino)benzamide] | 8.28
